Reference: PMC11508334, “In Vitro Evaluation of New 5-Nitroindazolin-3-one Derivatives as Promising Agents against Trypanosoma cruzi” (International Journal of Molecular Sciences, 2024)

Key:
Dm28c trypomastigotes = assay: Trypomastigote viability study (MTT); assay type: cell-based, Trypanosoma cruzi; conditions: for IC50: Trypanosoma cruzi, T. cruzi Dm28c trypomastigotes, 24 h, MTT; for SI Trypomastigote: Selectivity Index IC50 macrophages RAW 264.7/IC50 trypomastigotes Dm28c
Protocol: Vero cells (ATCC CCL-81) were infected with Dm28c trypomastigotes at a 1:3 (cell: parasite) ratio. T. cruzi trypomastigotes were initially obtained from primary cultures of peritoneal macrophage from chagasic mice. […] Vero cell cultures were then infected with trypomastigotes and incubated at 37 °C in humidified air and 5% CO2 for 5–7 days. After that time, the culture medium was collected and centrifuged at 500× g for 5 min. The trypomastigote-containing pellet was re-suspended in RPMI 1640 supplemented with inactivated FBS and penicillin–streptomycin at a final 1 × 10^7 parasites/mL density. Trypomastigote viability assays were performed using the MTT reduction method as described previously. Then, 1 × 10^7 parasites/mL was incubated in RPMI 1640 with inactivated FBS at 37 °C for 24 h with or without the studied compounds.

[1] = Cyclic voltammetry, reduction of nitro group; assay type: physicochemical; conditions: for −EpaIII: anodic peak potential of couple IIIc/IIIa; for −EpaIII / −EpcIII / −E1/2: given with inverted sign, vs. Ag/AgCl electrode in DMSO; for −EpcIII: cathodic peak potential of couple IIIc/IIIa; for Ipa/Ipc: current ratio RNO2/RNO2•−, couple IIIc/IIIa, DMSO; for −E1/2: half-wave potential of couple IIIc/IIIa
Protocol: Cyclic Voltammetry (CV) was carried out using a Metrohm Autolab instrument model PGSTAT204, using dimethyl sulfoxide (DMSO) as the solvent (1 mM solutions), tetrabutylammonium perchlorate (0.1 M TBAP) as the supporting electrolyte, a hanging drop mercury electrode (HDME) as the working electrode, Ag/AgCl (3M KCl) as the reference electrode, and a graphite rod as the counter electrode. All measurements were performed after bubbling with nitrogen (N2) for 10 min.
Using Nicholson’s procedure, the Ipa/Ipc values (RNO2/RNO2^•−) were measured from each cyclic voltammogram with a scan rate between 0.1 and 2.5 V/s.

RAW 264.7 cells [2] = assay: Cytotoxicity MTT assay on RAW 264.7 cells; assay type: cell-based; conditions: Mus musculus, RAW264.7, in vitro cytotoxicity, murine RAW 264.7 macrophages
Protocol: The compounds under study, dissolved in dimethylsulfoxide (DMSO), were added to the culture media at 10–200 μM. RAW 264.7 cells were cultured in 96-well plates (5 × 10^4 cells per well), and 100 μL of 0.5 mg/mL MTT was added to each well. The DMSO final concentration was less than 0.1% v/v. After incubation for 4 h at 37 °C, the generated water-insoluble formazan dye was dissolved by adding 100 μL of 10% w/v sodium dodecyl sulfate (SDS) in 0.01 M HCl. The plates were further incubated overnight at 37 °C; […] 0.5% of Triton X-100 was added as a positive control. The plates were further incubated overnight at 37 °C, and the optical density of the wells was determined using a microplate reader (Asys Expert Plus©, Asys Hitachi, Vienna, Austria) at 570 nm. Under these conditions, the optical density is directly proportional to the viable cell number in each well. All experiments were performed at least thrice and data were reported as means and their standard deviations from triplicate cultures. Results are reported as IC50 regarding the control (uninfected cells in culture medium)

RAW 264.7 cells [3] = assay: Plasma membrane permeability (SYTOX Green) of RAW 264.7 cells; assay type: cell-based, murine
[4] = test system: T. cruzi epimastigote stage (Dm28c strain); assay: Epimastigotes viability study (MTT); assay type: cell-based, Trypanosoma cruzi; conditions: for IC50: Trypanosoma cruzi, T. cruzi Dm28c epimastigotes, 24 h, MTT; for SI Epimastigote: Selectivity Index IC50 macrophages RAW 264.7/IC50 epimastigotes Dm28c
Protocol: The trypanocidal activity was evaluated against the T. cruzi epimastigote stage (Dm28c strain). It was measured through the MTT assay using 0.22 mg/mL phenazine methosulfate (as an electron carrier). T. cruzi epimastigote from the author's collection (Programa de Farmacología Molecular y Clínica, Facultad de Medicina, Universidad de Chile, Santiago, Chile) were grown at 28 °C in liver infusion tryptase (LIT) medium, as reported earlier, but replacing blood with 4 μM hemin. […] fetal bovine serum (FBS) was added to a final concentration of 10% v/v. In this colorimetric assay for testing the trypanocidal activity, the compounds were dissolved in DMSO. They were added to 3 × 10^6 parasites/mL at 100 μM final concentrations in RPMI 1640 culture medium without phenol red for 24 h at 28 °C. The final concentration of DMSO was less than 0.1% v/v. […] The MTT assay, which was described previously, determined the viability of the epimastigotes.

CL-B5 epimastigotes = test system: CL-B5 epimastigotes; parameters: method as in PMID 23124218; conditions: cited from earlier work
[5] = test system: Dm28c trypomastigote of T. cruzi; assay: Mitochondrial membrane potential (TMRM incorporation); assay type: cell-based, Trypanosoma cruzi; conditions: trypomastigotes, compound at IC50, 3 h; compared to negative control
Protocol: Mitochondrial membrane potential (ψm) was determined by the incorporation of the fluorescent probe tetramethylrhodamine methyl ester (TMRM). […] Then, carbonylcyanide-m-chlorophenylhydrazone (CCCP, 10 µM) was added as a control and incubated at 37 °C in humidified air and 5% CO2 for 3 h. Parasites were washed with phosphate-buffered saline (pH 7.4), and suspensions were incubated with TMRM (50 nM) for 15 min. Fluorescence measurements determined the incorporation of the probe at an excitation wavelength of 550 nm and an emission of 590 nm. All the assays were performed in darkness.

[6] = test system: trypomastigotes of T. cruzi; assay: Plasmatic membrane permeability assay (SYTOX Green) on trypomastigotes; assay type: cell-based, Trypanosoma cruzi; conditions: compound at IC50, 1 h
Protocol: Late growth-phase trypomastigotes of T. cruzi (3 × 10^6/well) were washed and incubated in the dark with 1 μM SYTOX Green probe (Molecular Probes) in HANKS′ balanced salts solution (HBSS; Sigma-Aldrich) supplemented with 10 mM D-glucose (HBSS + Glu). The test compound was added at IC50, and fluorescence was measured after 1 h of treatment. The maximum permeabilization was obtained with 0.5% Triton X-100. Fluorescence intensity was determined using Varioskan™ LUX multimode microplate reader (ThermoFisher Scientific, Waltham, MA, USA), with excitation and emission wavelengths of 485 and 520 nm, respectively. The following internal controls were used in the evaluation: (i) the background fluorescence of the compound at the respective wavelengths and (ii) the possible interference of DMSO. Samples were tested in triplicate.

[7] = test system: trypomastigote form of T. cruzi; assay: Analysis of ATP levels (CellTiter-Glo); assay type: cell-based, Trypanosoma cruzi; conditions: trypomastigotes; relative to negative control
Protocol: The CellTiter-Glo® Luminescent Cell Viability Assay (Promega, Fitchburg, WI, USA) was used to detect variations in ATP levels. After incubation, treated parasites were centrifuged (6000 rpm, 10 min, 4 °C) and treated according to the manufacturer’s instructions. Luminescence was determined using the Varioskan™ LUX multi-mode microplate reader (ThermoFisher Scientific). Results were expressed as a percentage relative to the negative control without treatment. Sodium azide (20 mM NaN3 for 3 h) was added as a positive control and benznidazole as a reference treatment. (1) %relative control=luminescence sample/luminescence control∗100

Row | Structure (SMILES) | IC50 (Dm28c trypomastigotes) | −EpaIII [1] | −EpcIII [1] | Ipa/Ipc [1] | −E1/2 [1] | IC50 (RAW 264.7 cells [2]) | melting point | effect on plasma membrane permeability (SYTOX Green incorporation) (RAW 264.7 cells [3]) | IC50 [4] | trypanocidal activity against CL-B5 epimastigotes (CL-B5 epimastigotes) | SI Trypomastigote (Dm28c trypomastigotes) | effect on mitochondrial membrane potential (ψm) [5] | alteration of plasma membrane permeability (SYTOX Green incorporation) [6] | ATP levels [7] | SI Epimastigote [4]
1 | COc1ccccc1Cn1c(=O)c2cc([N+](=O)[O-])ccc2n1C [Compound 15, 2-(2-Methoxybenzyl)-1-methyl-5-nitro-1,2-dihydro-3H-indazol-3-one] | > 100 µM | 1.04 V | 1.16 V | 0.96 | 1.10 V | 36.3 ± 1.1 µM | 210 to 212 °C | significantly affect permeability | > 100 µM |  |  |  |  |  | 
2 | CC(C)n1c2ccc([N+](=O)[O-])cc2c(=O)n1Cc1ccccc1 [Compound 2b] |  |  |  |  |  |  |  |  |  | effective against CL-B5 epimastigotes |  |  |  |  | 
3 | Cn1c(=O)c2cc([N+](=O)[O-])ccc2n1C [Compound 3b] | 41.8 ± 1.1 µM | 1.03 V | 1.13 V | 1.00 | 1.08 V | > 200 µM |  |  | 28.6 ± 2.1 µM |  | >4.8 | statistically significant impact | alter plasma membrane permeability | significantly reduced ATP levels | 
4 | Cn1[nH]c2ccc([N+](=O)[O-])cc2c1=O [Compound 3a] | 18.5 ± 0.9 µM | 0.95 V | 1.13 V | 0.99 | 1.04 V | 26.1 ± 0.8 µM |  | significantly affect permeability | 8.9 ± 1.3 µM |  | 1.4 |  |  |  | 2.9
5 | Cn1c2ccc([N+](=O)[O-])cc2c(=O)n1Cc1ccccc1 [Compound 1] | > 100 µM | 1.02 V | 1.12 V | 0.94 | 1.07 V | 37.8 ± 1.2 µM |  |  | 10.1 ± 0.6 µM | effective against CL-B5 epimastigotes |  |  |  |  | 3.7
6 | Cn1c2ccc([N+](=O)[O-])cc2c(=O)n1Cc1ccc(Cl)cc1 [Compound 11, 2-(4-Chlorobenzyl)-1-methyl-5-nitro-1,2-dihydro-3H-indazol-3-one] | 67.8 ± 1.7 µM | 0.99 V | 1.21 V | 0.89 | 1.10 V | 68.8 ± 1.2 µM | 128 to 130 °C | significantly affect permeability | 70.1 ± 2.1 µM |  | 1.0 |  |  |  | 1.0
7 | O=c1[nH]n(-c2ccccc2)c2ccc([N+](=O)[O-])cc12 [Compound 22] | 15.3 ± 1.2 µM | 1.26 V |  | 0.59 | 1.33 V | > 200 µM |  |  | 6.2 ± 0.9 µM |  | >13.1 | statistically significant impact | alter plasma membrane permeability | significantly reduced ATP levels | >32.3
8 | Cn1c2ccc([N+](=O)[O-])cc2c(=O)n1Cc1cccc(Br)c1 [Compound 13, 2-(3-Bromobenzyl)-1-methyl-5-nitro-1,2-dihydro-3H-indazol-3-one] | 43.6 ± 1.1 µM | 0.99 V | 1.13 V | 0.97 | 1.06 V | > 200 µM | 149 to 151 °C |  | 79.8 ± 2.3 µM |  | >4.6 | statistically significant impact | alter plasma membrane permeability | significantly reduced ATP levels | >2.5
9 | CCCn1c2ccc([N+](=O)[O-])cc2c(=O)n1Cc1ccccc1 [Compound 2a] |  |  |  |  |  |  |  |  |  | effective against CL-B5 epimastigotes |  |  |  |  | 
